Experimental data published in patent publication US10555987B2, “GHRH agonists for the treatment of ischemic disorders” (UNIVERSITY OF MIAMI, priority 2012, dated 2020).
Non-standard residues stand in square brackets, D forms with d. Residues, ends and D or L forms follow the SMILES beside them. *: point of attachment. Phe(F5) = N[C@@H](Cc1c(F)c(F)c(F)c(F)c1F)C(=O)O; Desaminotyrosyl = O=C(CCc1ccc(O)cc1)*; NMeY = CN[C@@H](Cc1ccc(O)cc1)C(=O)O; Agmatine = N=C(N)NCCCCN*; Nle = CCCC[C@H](N)C(=O)O; Orn = NCCC[C@H](N)C(=O)O; Abu = CC[C@H](N)C(=O)O; GABA = NCCCC(=O)O

Assays:
[1] = system: myocardial infarction (Fisher-344 rats); experiment: Serial echocardiography after MI, compared to JI-38 (Example 15, Table 15); format: in vivo, rat; parameters: key to LVEDD: Left Ventricular End Diastolic Diameter / LVESD: Left Ventricular End Systolic Diameter / VD: Ventricular Diastole / VS: Ventricular Systole / EF: Ejection Fraction / FS: Fraction Shortening: ↓: downward arrow denotes lower than JI-38; ↑: upward arrow denotes greater than JI-38; =denotes same as JI-38; ⬇⬇: double arrow denotes greater effect; ⬆⬆: double arrow denotes greater effect; settings: in comparison to JI-38
In short: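 Female 6-month-old Fisher-344 rats with permanent left coronary artery ligation received placebo, JI-38 or GHRH agonists subcutaneously twice daily from 2 h post-surgery (10 per group). Under 2% isoflurane, M-mode LVEDD, LVESD and FS plus long-axis EF were measured at baseline, 2 days, 1, 2 and 4 weeks.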

[2] = system: myocardial infarction (Fisher-344 rats); experiment: Hemodynamic analysis (pressure-volume loops), body and heart weight after MI, compared to JI-38 (Example 15, Table 16); format: in vivo, rat; parameters: key to ESP (End-Systolic Pressure) / EDP (End-Diastolic Pressure) / ESV (End-Systolic Volume) / PRSW (Preload Recruitable Stroke Work) / Ees (End-systolic Elastance) / dP/dt max (peak rate of the pressure rise) / dP/dt max_EDV / dP/dt min / TAU (relaxation time constant calculated by Weiss method) / SV (Stroke Volume) / CO (Cardiac Output) / SW (Stroke Work) / EF / Ea/Ees / Ea (arterial Elastance): ↓: downward arrow denotes lower than JI-38; ↑: upward arrow denotes greater than JI-38; =denotes same as JI-38; ⬇⬇: double arrow denotes greater effect; ⬆⬆: double arrow denotes greater effect; settings: rat MI model, s.c. twice daily; pressure-volume loops; expressed in comparison to JI-38
In short: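 Female 6-month-old Fisher-344 rats after permanent left coronary ligation received GHRH agonists subcutaneously twice daily from 2 h post-surgery (n=10/group). Under ketamine/xylazine/acepromazine anesthesia, LV pressure-volume loops were recorded via carotid micromanometer catheter, calibrated by hypertonic saline bolus and cuvette method; echocardiography also serial.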

GHRH receptor [3] = biological target: T1, GHRH receptor (Homo sapiens, UniProt Q02643); experiment: Receptor binding in vitro, 125I-labeled [His1,Nle27]-hGHRH(1-32)NH2, membrane receptors of human anterior pituitary cells (Table 14); settings: for Relative affinity (Binding potency) compared to JI-38: JI-38 = 1; for GHRH receptor binding affinity (in words): compared to JI-38; for Relative affinity (Binding potency) compared to hGHRH(1-29): hGHRH(1-29)NH2 = 1
T1 sequence (Q02643 23-423): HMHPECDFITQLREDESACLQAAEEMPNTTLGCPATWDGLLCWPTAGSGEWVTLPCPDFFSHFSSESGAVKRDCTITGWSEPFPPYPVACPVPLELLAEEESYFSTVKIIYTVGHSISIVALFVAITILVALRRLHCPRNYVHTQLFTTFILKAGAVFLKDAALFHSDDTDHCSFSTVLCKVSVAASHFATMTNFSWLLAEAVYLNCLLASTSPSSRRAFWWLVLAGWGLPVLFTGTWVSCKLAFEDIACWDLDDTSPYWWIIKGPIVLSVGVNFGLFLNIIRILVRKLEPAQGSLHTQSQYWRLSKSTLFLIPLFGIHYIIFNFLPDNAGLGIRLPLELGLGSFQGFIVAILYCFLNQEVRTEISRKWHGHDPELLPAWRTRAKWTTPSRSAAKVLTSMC
Excerpt: Normal human pituitary was purchased from the National Hormone and Peptide Program (UCLA Medical Center, Torrance, Calif.).

GHRH receptor [4] = biological target: T1, GHRH receptor; experiment: GHRH receptor binding, competition with 125I-labeled JV-1-42, human pituitary membrane homogenates (Table 7); parameters: Normal human pituitaries were purchased from the National Hormone and Peptide Program; tissue National Hormone and Peptide Program (A.F. Parlow, Harbor-UCLA Medical Center, Torrance, Calif.); host or cells: normal human pituitary, membrane fraction; settings: JI-38 = 1, Table 7
Excerpt: Normal human pituitaries were purchased from the National Hormone and Peptide Program (A.F. Parlow, Los Angeles, County Harbor-UCLA Medical Center, Torrance, Calif.).

SMILES | EF: Ejection Fraction [1] | FS: Fraction Shortening [1] | LVEDD: Left Ventricular End Diastolic Diameter [1] | LVESD: Left Ventricular End Systolic Diameter [1] | VD: Ventricular Diastole [1] | VS: Ventricular Systole [1] | CO (Cardiac Output) [2] | EDP (End-Diastolic Pressure) [2] | EF [2] | ESP (End-Systolic Pressure) [2] | ESV (End-Systolic Volume) [2] | Ea (arterial Elastance) [2] | Ea/Ees [2] | Ees (End-systolic Elastance) [2] | PRSW (Preload Recruitable Stroke Work) [2] | SV (Stroke Volume) [2] | SW (Stroke Work) [2] | TAU (relaxation time constant calculated by Weiss method) [2] | dP/dt max (peak rate of the pressure rise) [2] | dP/dt max_EDV [2] | other results
CCCC[C@H](NC(=O)[C@@H](NC(=O)[C@H](CC(=O)O)NC(=O)[C@H](CCC(N)=O)NC(=O)[C@H](CC(C)C)NC(=O)[C@H](CC(C)C)NC(=O)[C@H](CCCN)NC(=O)[C@H](CCCNC(=N)N)NC(=O)[C@H](C)NC(=O)[C@H](CO)NC(=O)[C@H](CC(C)C)NC(=O)[C@H](CCC(N)=O)NC(=O)[C@H](CC)NC(=O)[C@H](CC(C)C)NC(=O)[C@@H](NC(=O)[C@H](CCCN)NC(=O)[C@H](CCCNC(=N)N)NC(=O)[C@H](Cc1ccc(O)cc1)NC(=O)[C@H](CO)NC(=O)[C@H](CC(N)=O)NC(=O)[C@@H](NC(=O)[C@H](Cc1ccccc1)NC(=O)[C@@H](NC(=O)[C@H](C)NC(=O)[C@H](CC(=O)O)NC(=O)[C@@H](C)NC(=O)[C@H](Cc1ccc(O)cc1)NC)[C@@H](C)CC)[C@@H](C)O)C(C)C)[C@@H](C)CC)C(=O)N[C@@H](CC(=O)O)C(=O)NCCCCNC(=N)N [Peptide P-20367, [N—Me-Tyr^1, D-Ala^2, Orn^12, Abu^15, Orn^21, Nle^27, Asp^28, Agm^29]hGHRH(1-29)NH2] (H-[NMeY][dA]DAIFTNSYR[Orn]VL[Abu]QLSAR[Orn]LLQDI[Nle]D-Agmatine) | = | = | ↑ | ↑ | ↑ | ↑ | ↑ | ↑ | = | ↑ | ↑ | = | ↓ | = | = | = | ↓ | = | = | = | dP/dt min [2]: =; Relative affinity (Binding potency) compared to JI-38 (GHRH receptor [3]): 2.51; GHRH receptor binding affinity (in words) (GHRH receptor [3]): improved receptor binding affinity; Relative affinity (Binding potency) compared to hGHRH(1-29) (GHRH receptor [3]): 7.01; Relative affinity (Binding potency) vs JI-38 (GHRH receptor [4]): 2.56
CCCC[C@H](NC(=O)[C@@H](NC(=O)[C@H](CC(=O)O)NC(=O)[C@H](CCC(N)=O)NC(=O)[C@H](CC(C)C)NC(=O)[C@H](CC(C)C)NC(=O)[C@H](CCCN)NC(=O)[C@H](CCCNC(=N)N)NC(=O)[C@H](C)NC(=O)[C@H](CO)NC(=O)[C@H](CC(C)C)NC(=O)[C@H](CCC(N)=O)NC(=O)[C@H](CC)NC(=O)[C@H](CC(C)C)NC(=O)[C@@H](NC(=O)[C@H](CCCN)NC(=O)[C@H](CCCNC(=N)N)NC(=O)[C@H](Cc1ccc(O)cc1)NC(=O)[C@H](CO)NC(=O)[C@H](CC(N)=O)NC(=O)[C@@H](NC(=O)[C@H](Cc1c(F)c(F)c(F)c(F)c1F)NC(=O)[C@@H](NC(=O)[C@H](C)NC(=O)[C@H](CC(=O)O)NC(=O)[C@@H](C)NC(=O)CCc1ccc(O)cc1)[C@@H](C)CC)[C@@H](C)O)C(C)C)[C@@H](C)CC)C(=O)N[C@@H](CO)C(=O)N[C@@H](CCCNC(=N)N)C(=O)NCCCC(N)=O [Peptide P-25502, [Dat^1, D-Ala^2, Fpa5^6, Orn^12, Abu^15, Orn^21, Nle^27, Gab^30]hGHRH(1-30)NH2] (Desaminotyrosyl-[dA]DAI[Phe(F5)]TNSYR[Orn]VL[Abu]QLSAR[Orn]LLQDI[Nle]SR[GABA]-NH2) | = | = | = | = | ↑ | ↑ | ↓ | = | ↓ | = | = | ↑ | = | ↑ | = | ↓ | = | ↓ | = | = | dP/dt min [2]: =; Relative affinity (Binding potency) compared to JI-38 (GHRH receptor [3]): 1.27; Relative affinity (Binding potency) compared to hGHRH(1-29) (GHRH receptor [3]): 3.54; Relative affinity (Binding potency) vs JI-38 (GHRH receptor [4]): 13.18
CCCC[C@H](NC(=O)[C@@H](NC(=O)[C@H](CC(=O)O)NC(=O)[C@H](CCC(N)=O)NC(=O)[C@H](CC(C)C)NC(=O)[C@H](CC(C)C)NC(=O)[C@H](CCCN)NC(=O)[C@H](CCCNC(=N)N)NC(=O)[C@H](C)NC(=O)[C@H](CO)NC(=O)[C@H](CC(C)C)NC(=O)[C@H](CCC(N)=O)NC(=O)[C@H](CC)NC(=O)[C@H](CC(C)C)NC(=O)[C@@H](NC(=O)[C@H](CCCN)NC(=O)[C@H](CCCNC(=N)N)NC(=O)[C@H](Cc1ccc(O)cc1)NC(=O)[C@H](CO)NC(=O)[C@H](CCC(N)=O)NC(=O)[C@@H](NC(=O)[C@H](Cc1ccccc1)NC(=O)[C@@H](NC(=O)[C@H](C)NC(=O)[C@H](CC(=O)O)NC(=O)[C@@H](C)NC(=O)[C@H](Cc1ccc(O)cc1)NC)[C@@H](C)CC)[C@@H](C)O)C(C)C)[C@@H](C)CC)C(=O)N[C@@H](CC(=O)O)C(=O)N[C@@H](CCCNC(=N)N)C(=O)NC [Peptide P-27403, [N—Me-Tyr^1, D-Ala^2, Gln^8, Orn^12, Abu^15, Orn^21, Nle^27, Asp^28]hGHRH(1-29)NH—CH3] (H-[NMeY][dA]DAIFTQSYR[Orn]VL[Abu]QLSAR[Orn]LLQDI[Nle]DR-NHMe) | = | ↓ | ↑ | ↑ | ↑ | ↑ | ↑ | ↑ | = | = | ↑ | = | ↓ | = | = | = | = | = | = | = | dP/dt min [2]: =; Relative affinity (Binding potency) compared to JI-38 (GHRH receptor [3]; listed as MR-403): 3.69; GHRH receptor binding affinity (in words) (GHRH receptor [3]): highest GH-releasing potency and binding affinity; Relative affinity (Binding potency) compared to hGHRH(1-29) (GHRH receptor [3]): 10.30; Relative affinity (Binding potency) vs JI-38 (GHRH receptor [4]): 27.19
